Measured values: patent US20160025711A1, “FLUORESCENT MARKERS AND METHODS FOR IMAGING DISEASES” (BOARD OF SUPERVISORS OF LOUISIANA STATE UNIVERSITY AND …, priority 2013, published 2016)
Like-named read-outs stand apart in the source and are kept apart here.

Columns and labels:
[1] = Fluorescence spectra and quantum yield in pH 7.4, 0.1 M PBS; format: physicochemical; conditions: for fluorescence quantum yield Φ: quinine sulfate as standard
Excerpt: (§1) was used to examine possible quinone propionic acid quenchers and 1,8-naphthalimide reporters as well as linkers between the OeT quencher and the NI reporter, so as to ensure that quenching is thermodynamically feasible and efficient. In this equation, ED is the redox potential of the donor and EA that of the acceptor, ΔG00 is the energy of the first excited singlet state of the reporter, and e^2/εd is the Coulombic interaction energy of the ion pair, known to be 0.06 eV. The energy of the first excited singlet state of NI was measured to be 3.06 eV. […] The quinone was attached to the naphthalimide via an N-methylethanolamine linker through a carbamate to the amine of the naphthalimide ring. This linker imparts three properties on Q3NI: the linker is sufficiently short to allow for a high probability of electron transfer, the electron-withdrawing carbamate yields a favorable ΔGPeT, and the presence of the tertiary amide provides enhanced environmental stability. As a result, the fluorescence of Q3NI in pH 7.4, 0.1 M PBS is effectively quenched in comparison to that of the free NI reporter, as noted by their spectra in FIGS. 3B and 3C and respective fluorescence quantum yields Φ of 0.007 and 0.23 obtained using quinine sulfate as standard. […] The 33-fold fluorescence enhancement for NI versus Q3NI and very large Stokes shift of 116 nm (λmax abs=374 run, λmax em=490 nm) bode well for use of Q3NI as a multifunctional turn-on probe for sensing and imaging applications that utilize reductive stimuli capable of initiating removal of the reduced quinone group.

[2] = Voltammetric redox potentials and Rehm-Weller calculation of PeT energy; format: physicochemical
Excerpt: Embodiments of the present invention provide a probe (Q3NI) having fluorescence signal of a naphthalimide reporter quenched via oxidative electron transfer (OeT) by a covalently attached quinone propionic acid motif. See, e.g. FIG. 3A. The Q3NI provides the novel mechanism of reporter quenching by carefully tuning the electronic and optical properties of the quinone (Q3) OeT quencher and the naphthalimide reporter (NI), due to extant naphthalimide reporters that are quenched by reductive electron-transfer (ReT). The Rehm-Weller equation,
as §1

[3] = pKa of secondary amine of reporter; format: physicochemical
fixed samples = assay: Reporter retention in paraformaldehyde-fixed cell samples; format: cell-based; conditions: paraformaldehyde fixing; fixed samples stored for 10 months in the laboratory ambient
Excerpt: (§2) There was no indication of reporter in the nucleus, pointing to the lack of NQOI there; this is in contrast to previous work using immunohistochemical staining of penneabilized, fixed cells. The average cytosolic signal was 9 times higher in A549 cells versus NQOI-negative H596 cells, while it was 23 times higher in HT-29 cells compared to the NQOI-negative H596 cells. […] Accumulation of the basic (secondary amine pKa ˜11) NI occurred in acidic late endosomal and lysosomal vesicles, a beneficial outcome that leads to enhanced intracellular retention of NI. […] Collectively, there is great potential for use of our probe/reporter system for ex vivo quantitative analysis of excised tumor cells and long-term in vivo and in vitro imaging.

[4] = target: human NAD(P)Rquinone oxidoreductase isozyme 1 (hNQO1) (Homo sapiens, UniProt P15559); assay: Michaelis-Menten kinetics of hNQO1 activation of the probe (NI reporter production); format: biochemical
Excerpt: In embodiments of the present in invention hNQO 1 reduces fluorescent probes cloked with a quinone moiety. In embodiments of the present invention, Q3NI is a probe capable of activation by hNQO1 to yield the NI reporter at a significant rate. Apparent kinetic parameters of Q3NI were obtained from Michaelis-Menten kinetic treatment of the time-dependent NI reporter production, namely the Michaelis constant (Km), maximum velocity (Vmax), catalytic constant (kcat), and substrate specificity (kcat/Km). The high rate of NI reporter production under in vitro conditions is readily apparent in FIG. 7; after 5 min, a fluorescent signal has been attained that is 22% of the maximum achievable, yielding 2.2×10^−7 M of released reporter.

A549 [5] = assay: Unaided-eye visualization of cultured cells with handheld 365 nm lamp; format: cell-based, human; conditions: 2×10^−5 M Q3NI, 10 min incubation; 5.72×10^6 total cells
Protocol: (§3) Embodiments of the present invention may allow for cancer cells to be rapidly visualized and differentiated. […] After a 10 min incubation period in a cell culture solution containing 2×10^−5 M Q3NI, it was possible to differentiate between the various substrate-cultured cells (4.84 cm^2) using only a handheld fluorescent lamp emitting at 365 nm and the unaided eye. […] The ability to visually determine the presence of hNQO1 in a small number of cells is due to the marked difference in fluorescence from the unquenched NI reporter (Φ=0.23) and quenched Q3NI probe (Φ=0.007) and the large Stokes shift of the NI reporter that results in fluorescence emission in the visible spectrum (400 nm to ˜600 nm). These outcomes point to use of the Q3NI probe sensor in the real-time, visible (without the aid of imaging equipment), and accurate determination of tumor/healthy tissue borders so as to allow for surgical resection of tumors with small foci.

H596 [6] = assay: as above; format: cell-based, human; conditions: 2×10^−5 M Q3NI, 10 min incubation; 3.96×10^6 total cells
Protocol: as §3

HT-29 [7] = assay: as above; format: cell-based, human; conditions: 2×10^−5 M Q3NI, 10 min incubation; 3.69×10^6 total cells
Protocol: as §3

A549 [8] = assay: Flow cytometry assay of Q3NI activation; format: cell-based, human; conditions: 10 min or 60 min incubation; λex=405 nm, λem=457/60 nm; 10,000 cells
Protocol: (§4) Flow cytometry assays were used to assess the applicability of the Q3NI probe to rapidly detect and quantify tumor cells containing hNQO1. See, FIG. 8. The probe was incubated in a suspension of HT-29, A549, H596, and H446 (a small-cell lung carcinoma known to be devoid of hNQO1 activity) cells for either 10 min or 60 min, and a flow cytometer was used to measure fluorescence (λex=405 nm, λem=457/60 nm) in 10,000 individual cells. […] Importantly, the sustained low fluorescence observed with the H446 cells (FIG. 8) points to the intracellular stability of Q3NI (lack of nonspecific activation).

H446 [9] = assay: Flow cytometry assay of Q3NI activation; format: cell-based, human; conditions: 10 min or 60 min incubation; λex=405 nm, λem=457/60 nm; 10,000 cells
Protocol: as §4

H596 [10] = assay: Flow cytometry assay of Q3NI activation; format: cell-based, human; conditions: 10 min or 60 min incubation; λex=405 nm, λem=457/60 nm; 10,000 cells
Protocol: as §4

HT-29 [11] = assay: Flow cytometry assay of Q3NI activation; format: cell-based, human; conditions: 10 min or 60 min incubation; λex=405 nm, λem=457/60 nm; 10,000 cells
Protocol: as §4

A549 cells [12] = assay: Wide-field fluorescence imaging of fixed cells; format: cell-based, human; conditions: 10 min exposure
Excerpt: as §2

H596 cells = assay: Wide-field fluorescence imaging of fixed cells; format: cell-based, human; conditions: 10 min exposure
Excerpt: as §2

HT-29 cells = assay: Wide-field fluorescence imaging of fixed cells; format: cell-based, human; conditions: 10 min exposure
Excerpt: as §2

A549 cells [13] = assay: 2-photon microscopy of living cells; format: cell-based, human; conditions: 2.0×10^−5 M Q3NI in complete growth medium
Excerpt: (§5) Multiphoton (MP) microscopy imaging of cells and tissues may be more advantageous than traditional fluorescence microscopy, because use of the characteristic long-wavelength photons offers higher fluorophore and cellular photostability that provides extended imaging duration, less background signal from out-of-focus excitation and scattering events, and deeper penetration depth. In addition, MP imaging is ideal for direct observation of targets in their physiological environment and ex vivo thick-specimen sampling where 2D and 3D maps can be generated. […] As before, the signal appears somewhat heterogeneous throughout the cytosolic space of the HT-29 and A549 cells due to NI accumulation in acidic organelles. To ensure Q3NI and NI had little effect on cell health, cells were incubated in a 2.0×10^−5 M Q3NI solution in complete growth medium for 1 h and 1 day, and then cell viability was assessed with a trypan blue assay. After 1 h, cell viability for HT-29, A549, and H596 was 97.7%, 98.8%, and 100%, while it was 97.7%, 98.7%, and 98.4% after 24 h.

H446 [14] = assay: 2-photon microscopy of living cells; format: cell-based, human; conditions: 2.0×10^−5 M Q3NI in complete growth medium
Excerpt: as §5

H596 [15] = assay: 2-photon microscopy of living cells; format: cell-based, human; conditions: 2.0×10^−5 M Q3NI in complete growth medium
Excerpt: as §5

HT-29 cell line = assay: 2-photon microscopy of living cells; format: cell-based, human; conditions: 2.0×10^−5 M Q3NI in complete growth medium
Excerpt: as §5

A549 [16] = assay: Trypan blue cell viability assay; format: cell-based, human; conditions: 2.0×10^−5 M Q3NI
Excerpt: as §5

H596 [17] = assay: Trypan blue cell viability assay; format: cell-based, human; conditions: 2.0×10^−5 M Q3NI
Excerpt: as §5

HT-29 [18] = assay: Trypan blue cell viability assay; format: cell-based, human; conditions: 2.0×10^−5 M Q3NI
Excerpt: as §5

[19] = other dyes applied to cancer detection and localization; cited from earlier work

Sequence of human NAD(P)Rquinone oxidoreductase isozyme 1 (hNQO1) (P15559 whole entry): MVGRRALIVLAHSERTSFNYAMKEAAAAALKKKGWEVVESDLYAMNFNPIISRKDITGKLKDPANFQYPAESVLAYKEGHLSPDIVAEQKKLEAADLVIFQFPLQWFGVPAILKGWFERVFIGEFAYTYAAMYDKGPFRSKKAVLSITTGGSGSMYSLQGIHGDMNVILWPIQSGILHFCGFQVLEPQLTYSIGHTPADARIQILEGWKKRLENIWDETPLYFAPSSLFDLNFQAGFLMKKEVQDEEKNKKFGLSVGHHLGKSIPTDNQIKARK

## CCCCN1C(=O)c2cccc3c(NC(=O)OCCNC)ccc(c23)C1=O [NI]
[1]; pH 7.4, 0.1 M PBS
  fluorescence enhancement for NI versus Q3NI: 33 fold
  fluorescence quantum yield Φ: 0.23
[1]; λmax abs=374, λmax em=490 nm
  Stokes shift: 116 nm
[2]
  energy of the first excited singlet state: 3.06 eV
[2]; voltammetric measurements
  ED, redox potential of the donor: 1.74 V
[3]
  secondary amine pKa: ~11
Fixed samples
  efflux of reporter from cells / fluorescence retention: no apparent efflux

## CCCCN1C(=O)c2cccc3c(NC(=O)OCCN(C)C(=O)CC(C)(C)C4=C(C)C(=O)C(C)=C(C)C4=O)ccc(c23)C1=O [Q3NI]
[4]; after 5 min, in vitro
  fluorescent signal as % of the maximum achievable: 22%
  released reporter: 220 nM
[4]; apparent, FIG. 7
  catalytic constant (kcat): 0.019 ± 0.001 s⁻¹
  maximum velocity (Vmax): 0.037±0.002 μmol min^−1 mg·NQO^−1
[4]; apparent, from time-dependent NI reporter production, FIG. 7, read-out: Michaelis constant (Km)
  Km: 3.86 ± 0.79 µM
[1]; pH 7.4, 0.1 M PBS
  fluorescence quantum yield Φ: 0.007
[2]; Rehm-Weller equation
  ΔGPeT, energy change for the OeT process: −0.37 eV
[2]; voltammetric measurements
  EA, redox potential of the acceptor (quinone propionic acid group): −1.01 V
A549 [5]
  appearance under 365 nm handheld lamp, unaided eye: fluorescent blue
H596 [6]
  appearance under 365 nm handheld lamp, unaided eye: no apparent emission
HT-29 [7]
  appearance under 365 nm handheld lamp, unaided eye: fluorescent blue
A549 [8]
  flow cytometry fluorescence histogram: high-intensity, unimodal distribution of signals
H446 [9]
  flow cytometry fluorescence histogram: minimal fluorescence
H596 [10]
  flow cytometry fluorescence histogram: minimal fluorescence
HT-29 [11]
  flow cytometry fluorescence histogram: high-intensity, unimodal distribution of signals
A549 cells [12]
  average cytosolic signal versus NQO1-negative H596 cells: 9 times
H596 cells
  intracellular NI fluorescence signal: minimal signal
HT-29 cells
  average cytosolic signal versus NQO1-negative H596 cells: 23 times
A549 cells [13]
  average fluorescence signal compared to H596 cells: 13 fold
  average fluorescence signal versus H446 cells: 3.66×10^4 fold
H446 [14]
  fluorescence signal from NI: minimal signal
H596 [15]
  fluorescence signal from NI: minimal signal
HT-29 cell line
  cytosolic intensity compared to H446 cells: 4.51×10^4 fold
  cytosolic intensity compared to H596 cells: 15 fold
A549 [16]; after 1 h
  cell viability: 98.8%
A549 [16]; after 24 h
  cell viability: 98.7%
H596 [17]; after 1 h
  cell viability: 100%
H596 [17]; after 24 h
  cell viability: 98.4%
HT-29 [18]; after 1 h
  cell viability: 97.7%
HT-29 [18]; after 24 h
  cell viability: 97.7%

## CC1(C)C(/C=C/C=C/C=C/C=C2\N(CCCCS(=O)(=O)O)c3ccc4ccccc4c3C2(C)C)=[N+](CCCCS(=O)(=O)[O-])c2ccc3ccccc3c21 [indocyanine green]
[19]
  fluorescence quantum yield Φ: 0.0028
